The numbers were not newly measured in US20250025568A1, “COMBINATION OF ANTIBODY-DRUG CONJUGATE AND PARP1 SELECTIVE INHIBITOR” (AstraZeneca UK Limited, priority 2021, published 2025), which cites them from elsewhere.

Bounds are passed on as bounds.

For one data set, the system named is BRCA2 −/− DLD-1. To be noted: 4 day compound dosing; read-out: BRCA2 −/− DLD-1 prolif 4 d IC50; cited from earlier work.
In the next data set the test system is WT DLD-1. Particulars: 4 day compound dosing; read-out: WT DLD-1 prolif 4 d IC50; cited from earlier work.

Regarding `CCc1cc2cnc(CN3CCN(c4ccc(C(=O)NC)nc4)CC3)cc2[nH]c1=O` [Example 1, 5-[4-[(3-ethyl-2-oxo-1H-1,6-naphthyridin-7-yl)methyl]piperazin-1-yl]-N-methyl-pyridine-2-carboxamide], the results for the IC50 in the data set with BRCA2 −/− DLD-1 and in the data set with WT DLD-1 were 10 nM and greater than 30000 nM, respectively.
On to `CCc1cc2cnc(CN3CCN(c4ccc(C(=O)NC)nc4F)CC3)cc2[nH]c1=O` [Example 2, 5-[4-[(3-ethyl-2-oxo-1H-1,6-naphthyridin-7-yl)methyl]piperazin-1-yl]-6-fluoro-N-methyl-pyridine-2-carboxamide], for which the IC50 is 8 nM in the data set with BRCA2 −/− DLD-1 and greater than 30000 nM in the data set on WT DLD-1.
On to `CCc1cc2cnc(CN3CCN(c4ccc(C(=O)NC)nc4Cl)CC3)cc2[nH]c1=O` [Example 3, 6-chloro-5-[4-[(3-ethyl-2-oxo-1H-1,6-naphthyridin-7-yl)methyl]piperazin-1-yl]-N-methyl-pyridine-2-carboxamide], for which the IC50 was 4 nM in the data set with BRCA2 −/− DLD-1 and greater than 30000 nM in the data set on WT DLD-1.
As to `CCc1cc2ncc(CN3CCN(c4ccc(C(=O)NC)nc4F)CC3)cc2[nH]c1=O` [Example 5, 5-[4-[(7-ethyl-6-oxo-5H-1,5-naphthyridin-3-yl)methyl]piperazin-1-yl]-6-fluoro-N-methyl-pyridine-2-carboxamide], the IC50 was 6 nM in the data set with BRCA2 −/− DLD-1 and greater than 30000 nM in the data set with WT DLD-1.
For the compound `CCc1cc2ncc(CN3CCN(c4ccc(C(=O)NC)nc4Cl)CC3)cc2[nH]c1=O` [Example 6, 6-chloro-5-[4-[(7-ethyl-6-oxo-5H-1,5-naphthyridin-3-yl)methyl]piperazin-1-yl]-N-methyl-pyridine-2-carboxamide], the IC50 with BRCA2 −/− DLD-1 was 6 nM; in the data set with WT DLD-1 it was greater than 30000 nM.
Turning to `CCc1cc2ncc(CN3CCN(c4ccc(C(N)=O)nc4)CC3)cc2[nH]c1=O` [Example 7, 5-[4-[(7-ethyl-6-oxo-5H-1,5-naphthyridin-3-yl)methyl]piperazin-1-yl]pyridine-2-carboxamide], the IC50 in the data set on BRCA2 −/− DLD-1 is 4140 nM.
As to `CCc1nc(C(=O)NC)ccc1N1CCN(Cc2ccc3nc(CC)c(=O)[nH]c3c2)CC1` [Example 8, 6-ethyl-5-[4-[(2-ethyl-3-oxo-4H-quinoxalin-6-yl)methyl]piperazin-1-yl]-N-methyl-pyridine-2-carboxamide], the IC50 in the data set on WT DLD-1 was greater than 19000 nM.
Consider `CCc1nc2ccc(CN3CCN(c4ccc(C(=O)NC)nc4C(F)(F)F)CC3)cc2[nH]c1=O` [Example 9, 5-[4-[(2-ethyl-3-oxo-4H-quinoxalin-6-yl)methyl]piperazin-1-yl]-N-methyl-6-(trifluoromethyl)pyridine-2-carboxamide], for which the IC50 with BRCA2 −/− DLD-1 was 10 nM; with WT DLD-1, 17000 nM.
On to `CCc1nc2ccc(CN3CCN(c4ccc(C(=O)NC)nc4C(F)F)CC3)cc2[nH]c1=O` [Example 10, 6-(difluoromethyl)-5-[4-[(2-ethyl-3-oxo-4H-quinoxalin-6-yl)methyl]piperazin-1-yl]-N-methyl-pyridine-2-carboxamide], for which the IC50 was 6 nM with BRCA2 −/− DLD-1 and greater than 30000 nM in the data set with WT DLD-1.
`CCc1nc2ccc(CN3CCN(c4ccc(C(=O)NC)nc4)CC3)cc2[nH]c1=O` [Example 11, 5-[4-[(2-ethyl-3-oxo-4H-quinoxalin-6-yl)methyl]piperazin-1-yl]-N-methyl-pyridine-2-carboxamide]: the IC50 with BRCA2 −/− DLD-1 is 184 nM; in the data set on WT DLD-1, greater than 30000 nM.
Take `CCc1nc2ccc(CN3CCN(c4ccc(C(=O)NC)nc4F)CC3)cc2[nH]c1=O` [Example 12, 5-[4-[(2-ethyl-3-oxo-4H-quinoxalin-6-yl)methyl]piperazin-1-yl]-6-fluoro-N-methyl-pyridine-2-carboxamide]: the IC50 in the data set on BRCA2 −/− DLD-1 was 8 nM; with WT DLD-1, greater than 30000 nM.
As to `CCc1nc2ccc(CN3CCN(c4ccc(C(=O)NC)nc4C)CC3)cc2[nH]c1=O` [Example 13, 5-[4-[(2-ethyl-3-oxo-4H-quinoxalin-6-yl)methyl]piperazin-1-yl]-N, 6-dimethyl-pyridine-2-carboxamide], the IC50 with BRCA2 −/− DLD-1 is 5 nM; in the data set with WT DLD-1, greater than 26000 nM.
As to `CCc1nc2ccc(CN3CCN(c4ccc(C(=O)NC)nc4Cl)CC3)cc2[nH]c1=O` [Example 14, 6-chloro-5-[4-[(2-ethyl-3-oxo-4H-quinoxalin-6-yl)methyl]piperazin-1-yl]-N-methyl-pyridine-2-carboxamide], the IC50 with BRCA2 −/− DLD-1 was 6 nM; with WT DLD-1, greater than 30000 nM.
In the case of `CNC(=O)c1ccc(N2CCN(Cc3ccc4nc(C(F)(F)F)c(=O)[nH]c4c3)CC2)cn1` [Example 15, N-methyl-5-[4-[[3-oxo-2-(trifluoromethyl)-4H-quinoxalin-6-yl]methyl]piperazin-1-yl]pyridine-2-carboxamide], the results for the IC50 in the data set on BRCA2 −/− DLD-1 and in the data set on WT DLD-1 were 90 nM and greater than 30000 nM, respectively.
With `CNC(=O)c1ccc(N2CCN(Cc3ccc4nc(C(F)(F)F)c(=O)[nH]c4c3)CC2)c(Cl)n1` [Example 16, 6-chloro-N-methyl-5-[4-[[3-oxo-2-(trifluoromethyl)-4H-quinoxalin-6-yl]methyl]piperazin-1-yl]pyridine-2-carboxamide], the IC50 in the data set with BRCA2 −/− DLD-1 was 18 nM; in the data set with WT DLD-1 it was greater than 22000 nM.
As for `CNC(=O)c1ccc(N2CCN(Cc3ccc4nc(C(F)(F)F)c(=O)[nH]c4c3)CC2)c(F)n1` [Example 17, 6-fluoro-N-methyl-5-[4-[[3-oxo-2-(trifluoromethyl)-4H-quinoxalin-6-yl]methyl]piperazin-1-yl]pyridine-2-carboxamide], the IC50 in the data set with BRCA2 −/− DLD-1 is 20 nM; in the data set on WT DLD-1, greater than 30000 nM.
`CCCc1nc2ccc(CN3CCN(c4ccc(C(=O)NC)nc4)CC3)cc2[nH]c1=O` [Example 18, N-methyl-5-[4-[(3-oxo-2-propyl-4H-quinoxalin-6-yl)methyl]piperazin-1-yl]pyridine-2-carboxamide]: the IC50 in the data set on BRCA2 −/− DLD-1 was 4900 nM; in the data set on WT DLD-1, greater than 30000 nM.
For `CCCc1nc2ccc(CN3CCN(c4ccc(C(=O)NC)nc4Cl)CC3)cc2[nH]c1=O` [Example 19, 6-chloro-N-methyl-5-[4-[(3-oxo-2-propyl-4H-quinoxalin-6-yl)methyl]piperazin-1-yl]pyridine-2-carboxamide], the IC50 in the data set with WT DLD-1 is greater than 30000 nM.
`CCCc1nc2ccc(CN3CCN(c4ccc(C(=O)NC)nc4F)CC3)cc2[nH]c1=O` [Example 20, 6-fluoro-N-methyl-5-[4-[(3-oxo-2-propyl-4H-quinoxalin-6-yl)methyl]piperazin-1-yl]pyridine-2-carboxamide]: the IC50 is 16 nM in the data set on BRCA2 −/− DLD-1 and greater than 24000 nM in the data set on WT DLD-1.
On to `CCc1nc2cc(F)c(CN3CCN(c4ccc(C(=O)NC)nc4F)CC3)cc2[nH]c1=O` [Example 21, 5-[4-[(2-ethyl-7-fluoro-3-oxo-4H-quinoxalin-6-yl)methyl]piperazin-1-yl]-6-fluoro-N-methyl-pyridine-2-carboxamide], for which the IC50 with BRCA2 −/− DLD-1 was 16 nM; in the data set on WT DLD-1, greater than 30000 nM.
Consider `CNC(=O)c1ccc(N2CCN(Cc3ccc4nc(C(C)(F)F)c(=O)[nH]c4c3)CC2)cn1` [Example 22, 5-[4-[[2-(1,1-difluoroethyl)-3-oxo-4H-quinoxalin-6-yl]methyl]piperazin-1-yl]-N-methyl-pyridine-2-carboxamide], for which the IC50 in the data set on BRCA2 −/− DLD-1 was 12 nM; in the data set with WT DLD-1, greater than 30000 nM.
Take `CNC(=O)c1ccc(N2CCN(Cc3ccc4nc(CCF)c(=O)[nH]c4c3)CC2)cn1` [Example 25, 5-[4-[[2-(2-fluoroethyl)-3-oxo-4H-quinoxalin-6-yl]methyl]piperazin-1-yl]-N-methyl-pyridine-2-carboxamide]: in the data set on WT DLD-1, the IC50 was greater than 25000 nM.
